Assay results from patent US8198317B2, “Methylenedioxy phenolic compounds and their use to treat disease” (The Ohio State University Research Foundation, priority 2008, dated 2012).

What was measured:
Acetyl-CoA Oxidase (ACO) = assay: ACO mRNA (PPARα regulated gene) by RT-PCR in HepG2 cells; assay type: cell-based, human; details: HepG2, dose dependent and time dependent
Method: ACO is a PPAR-α regulated gene. HepG2 cells were stimulated by INV 75 (100 μM) for the indicated time, the mRNA expression level of ACO was analyzed by real-time RT-PCR. n=3. *, p<0.05 vs 0.
Cells were stimulated with INV-75 for 4 hours, and mRNA expression level of acetyl co-enzyme A oxidase (ACO) analyzed by real-time RT-PCR. n=3. *, p<0.05 vs −8.5.
We used a reporter gene assay in HepG2 cells to screen for agonists of the peroxisome proliferator-activated receptors. Peroxisome proliferator-activated receptors (PPARs) and other members of the nuclear hormone receptor family are important drug targets for the treatment of metabolic diseases. PPARs play crucial roles in lipid and glucose metabolism, respectively. Therefore, screening methods that help to rapidly identify activators of these receptors should be of considerable value. INV-75 activated a classic PPARα gene, Acetyl-CoA Oxidase (ACO) in a dose dependent and time dependent fashion (FIG. 6A). The time course experiment was performed in presence of INV-75 up to 15 hours. […] We next tested the specificity of INV-75 for PPARα by performing experiments in HepG2 cells transfected with yeast GAL4-PPARα-LBD plasmid+UAS-Luciferase; GAL4-PPARδ-LBD plasmid+UAS-Luciferase and GAL4-PPARα-LBD plasmid+UAS-Luciferase. […]

PPARα = target: T1, PPARα (Homo sapiens, UniProt Q07869); assay: GAL4-PPARα-LBD luciferase assay in HepG2 cells; assay type: cell-based
T1 construct: HepG2 cells transfected with yeast GAL4-PPARα-LBD plasmid+UAS-Luciferase; expressed in transfected cells; host or cells: HepG2
T1 sequence (Q07869 239-466 limits assumed): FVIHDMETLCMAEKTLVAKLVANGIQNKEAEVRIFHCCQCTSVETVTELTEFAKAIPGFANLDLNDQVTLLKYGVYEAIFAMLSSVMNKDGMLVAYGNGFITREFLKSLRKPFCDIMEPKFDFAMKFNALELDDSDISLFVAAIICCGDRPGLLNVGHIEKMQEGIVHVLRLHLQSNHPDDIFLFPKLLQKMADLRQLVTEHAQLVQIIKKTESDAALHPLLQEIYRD
From the text: We used a reporter gene assay in HepG2 cells to screen for agonists of the peroxisome proliferator-activated receptors. Peroxisome proliferator-activated receptors (PPARs) and other members of the nuclear hormone receptor family are important drug targets for the treatment of metabolic diseases. PPARs play crucial roles in lipid and glucose metabolism, respectively. Therefore, screening methods that help to rapidly identify activators of these receptors should be of considerable value. INV-75 activated a classic PPARα gene, Acetyl-CoA Oxidase (ACO) in a dose dependent and time dependent fashion (FIG. 6A). The time course experiment was performed in presence of INV-75 up to 15 hours. […] We next tested the specificity of INV-75 for PPARα by performing experiments in HepG2 cells transfected with yeast GAL4-PPARα-LBD plasmid+UAS-Luciferase; GAL4-PPARδ-LBD plasmid+UAS-Luciferase and […]. The PPARα, PPARδ and PPARγ binding assays were performed using multiple concentrations of INV-75 (1 μM, 10 μM, 100 μM and 1000 μM). The level of luciferase activity corresponded to the degree of PPAR activation. The results were compared with classic PPAR agonists such as WY-14643 (PPARα agonist), Bezafibrate (PPARδ agonist) and Rosiglitazone ([…]).

[1] = test system: Watanabe Heritable Hyperlipidemic Rabbits (WHHL); assay: MRI of abdominal aortic wall volume in WHHL rabbits; assay type: in vivo, rabbit
Method: In vivo experiments on hypercholesterolemic rabbits (Watanabe Heritable Hyperlipidemic Rabbits, WHHL) were performed in 6 rabbits treated with INV-75. Four rabbits served as controls.
Animal Model: WHHL rabbits weighing approximately 2 kg at 2 months were purchased from Brown Family in Alabama and housed in the institutional Laboratory Animal Center. Rabbits at the age of 6 months were used for all experiments. Rabbits were allowed free access to water and were fed a high cholesterol chow (2% cholesterol) from Harlan Tekad TD 7251. The animal care and experimental protocols were in accordance with nationally approved guidelines. The protocol that the rabbits were subjected to is outlined in FIG. 7. INV-75 was dissolved in 90% ethanol and sprayed on the high fat chow. The diet-drug mixture was then vacuum dried overnight to remove ethanol and then used to feed rabbits.
Each animal underwent three MRI studies: the first one prior to high fat feeding (baseline prior to drug administration); the second at the mid-point of drug therapy; and the final study after 12 weeks of drug therapy (FIG. 7). […] At the end of the study, all animals underwent an MRI study for plaque volume quantification. […]
High-resolution non-invasive MRI served to assess the degree of atherosclerosis before and after the corresponding treatments. Atherosclerotic plaque in the abdominal aorta of WHHL rabbits was analyzed by in vivo MRI scans at the indicated time points (FIG. 7). […] Plaque burden was determined by manually tracing the external elastic lamina (EEM) and the luminal border (L) and determining the area within each boundary using Siemens Viewer software. Slice volume (V) was calculated as V=(EEM-L)*4.0 and total wall volume per animal was calculated using the formula TWV=Σ[(EEM-L)*4] and expressed in mm^3. TWVs for each animal at each time point were normalized for varying numbers of readable slices with the formula NWV=(TWV/n)*m; n=number of slices readable in the individual animal and m=mean number of slices readable in all animals over all time points. […]

[2] = test system: Watanabe Heritable Hyperlipidemic Rabbits (WHHL); assay: Quantitative RT-PCR of genes in thoracic aorta of WHHL rabbits; assay type: in vivo, rabbit
Method: Total RNA was isolated with TRIzol reagent (Invitrogen). Four microgram of total RNA was reverse transcribed by random hexamers and ThermoScript RT-PCR System (Invitrogen). Quantitative real-time PCR was performed with the Stratagene Mx3005 using SYBER Green PCR Master Mix (Applied Biosystems, Foster City, Calif.). Relative expression level compared to GAPDH was obtained. The primers used in the experiment are depicted in the table below and were purchased from Invitrogen.

agonist properties on PPARα activation (PPARα): selective but partial agonist
PPARα ligand binding activity (PPARα; 1 μM to 1000 μM): increased
Compound: CC(=O)Oc1cc2c(cc1[N+](=O)[O-])OCO2 [INV-75, 3,4-methylenedioxy-6-nitrophenyl acetate]
Acetyl-CoA Oxidase (ACO) gene activation (Acetyl-CoA Oxidase (ACO)): activated
wall volume, abdominal aorta, MRI ([1]; 12 weeks): 0.37 cm^3
Mean normalized wall volume (NWV), abdominal aorta, MRI ([1]; baseline, prior to supplementation): 0.24 cm^3
mean plaque volume, abdominal aorta, MRI ([1]; study midpoint, 6 weeks of supplementation): 0.35 cm^3
mRNA expression of ICAM-1 ([2]; WHHL thoracic aorta): decreased
mRNA expression of L-selectin ([2]; WHHL thoracic aorta): decreased
mRNA expression of MCP-1 ([2]; WHHL thoracic aorta): decreased
mRNA expression of VCAM-1 ([2]; WHHL thoracic aorta): decreased
mRNA expression of the angiotensin II Type I receptor ([2]; WHHL, data not shown): decreased
